From PubChem BioAssay (NCI) come the findings set out here.

Assay in all cases: NCI tumour cell line growth inhibition, 48 h
The test system of assay [1] is SW-620 colon.
The subject of assay [2] is NCI-H460 lung.
Assay [3] deals with K-562 leukemia.
Assay [4] has as its system HT29 colon.
Assay [5] deals with HL-60(TB) leukemia.
The test system of assay [6] is SR leukemia.
The subject of assay [7] is KM12 colon.
Assay [8] has as its system HCC-2998 colon.
The test system of assay [9] is MALME-3M melanoma.
In assay [10] the test system is SNB-19 CNS.

The structures appear in SMILES notation.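 Results reflect a 48-hour exposure of cells in 96-well plates to compound at five concentrations. Abbreviation: GI50, concentration required for 50% inhibition of growth. TGI: concentration producing complete growth inhibition.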

On to `CCc1n(Cc2ccc3ccccc3n2)cc[n+]1Cc1ccc2ccccc2n1`, for which the GI50 in [1] is 1.39 µM; in assay [2], 0.511 µM; in [3], 0.493 µM; in [4], 0.263 µM; in assay [5], 0.0329 µM; in [6] it was 0.0753 µM. The GI50 is 0.185 µM in assay [7], 0.227 µM in assay [8], 0.128 µM in [9] and 0.0687 µM in [10]. Also, the TGI in assay [1] amounted to 30.2 µM; in assay [2], 11.9 µM; in assay [3], 16.1 µM; in [4], 12 µM; in assay [5], 0.262 µM; in assay [6], 12.5 µM. In addition, the TGI in assay [7] stood at 11.3 µM; in assay [8], 14.4 µM; in assay [9], 0.973 µM; in assay [10], 10.7 µM.
For `C=C1SC(=Nc2c(C)cc(C)cc2C)N(C(=O)c2sc3ccccc3c2Cl)C12CCCCC2`, the GI50 is 31.1 µM in assay [1]; greater than 100 µM in assay [2]; 54.5 µM in assay [3]; 58.5 µM in [4]; 16.5 µM in assay [5]; 13 µM in assay [6]. For the same compound, the GI50 in assay [7] is 54.6 µM; in [8] it was 44.7 µM; in assay [9], greater than 100 µM; in [10], greater than 100 µM. Moreover, the TGI in assay [1], in [2], in assay [3], in [4], in [5] and in [6] was greater than 100 µM throughout. Further, the TGI in assay [7], in assay [8], in assay [9] and in [10] was greater than 100 µM in each case.
